Patent US20190381108A1, “COMPOSITION FOR IMPROVING BONE HEALTH, INCLUDING FUNCTIONAL FERMENTED MATERIAL USING OYSTERS” (Jeju National University Industry-Academic Cooperation …, priority 2018, published 2019)

Test system: RAW 264.7 cells
Assay: Production of ROS in cells (DCF-DA, flow cytometry)
Assay type: cell-based, murine
Details: RANKL 100 ng/mL; DCF-DA staining
Procedure: After RAW 264.7 cells were aliquoted at 5×10^4 cells/well into 6-well plates and stabilized for 24 hours, RAW 264.7 cells were induced into differentiation by RANKL (100 ng/mL), treated with FO at each concentration, cultured for 5 days, and then stained at 37° C. for 30 minutes by treatment with 10 μM DCF-DA, and then measured using flow cytometry.
It is known that oxidative stress in cells occurs during the differentiation of osteoclasts induced by RANKL. Therefore, the effects of FO on the production of ROS induced by RANKL was confirmed through DCF-DA staining.

Structure (SMILES): CC(=O)N[C@@H](CS)C(=O)O [NAC]
- ROS increased in the osteoclasts treated with RANKL: also similarly observed
